{
  "source": "patent US4939124A",
  "about": "“Treatment and diagnosis of dementia” (Laboratorios Serono S.A., priority 1988, dated 1990)",
  "system": "female in-patients with primary degenerative dementia (Alzheimer like)",
  "assay": "8-day GRF (1-29) NH2 therapy, MMS Folstein test and Crichton's scale",
  "format": "in vivo, human",
  "conditions": "for MMS Folstein and Crichton's scale scores and clinical findings: 8 days, 12 hours, 24 hours, 7 days",
  "protocol": "Twenty female in-patients with primary degenerative dementia (Alzheimer like) aged 67-84 years were divided in two therapy-groups with GRF (1-29) NH2. All patients were treated with this product for 8 days with either of the following schedules: (I) 250 mcg s.c. twice daily (II) 50 mcg i.v. twice daily Therapy was started after a 15-day wash-out period for psychotropic-drugs. Evolution of patients was assessed using the MMS Folstein test and Chrichton's scale test at 12 hours, 24 hours and 7 days after starting with GRF. The statistical evaluation was made using Friedman test with a risk level p<0,01 (highly significant differences).",
  "data": [
    {"substance": "growth hormone releasing factor [GRF]", "values": [
      {"measurement": "comparison of i.v. and s.c. groups (increase in scores and clinical findings)", "setting": "GRF (1-29) NH2 50 mcg i.v. vs 250 mcg s.c. twice daily", "value": "more important in the group with i.v. GRF administration than in the one with s.c. administration"},
      {"measurement": "persistence of effect", "setting": "GRF (1-29) NH2, both groups", "value": "remains significant over the whole 7 days of treatment"},
      {"measurement": "start of effect after administration", "setting": "GRF (1-29) NH2, both groups", "value": 12, "unit": "h"},
      {"measurement": "sphincter control and general psychomotricity after discontinuation", "setting": "GRF (1-29) NH2 administration discontinued", "value": "returned to pretreatment situation"},
      {"measurement": "sphincter control and general psychomotricity (nurse's report)", "setting": "during treatment with GRF (1-29) NH2", "value": "improvement"},
      {"measurement": "MMS Folstein and Crichton's scale scores and clinical findings", "setting": "group I: GRF (1-29) NH2 250 mcg s.c. twice daily", "value": "significant increase"},
      {"measurement": "MMS Folstein and Crichton's scale scores and clinical findings", "setting": "group II: GRF (1-29) NH2 50 mcg i.v. twice daily", "value": "significant increase"}
    ]}
  ]
}
